Literature values in patent publication US5882682A (Merck & Co., Inc., priority 1997, dated 1999).
In brackets after ≈: the same amount, converted by molar mass.

How the values were obtained:
[1] = humans

aqueous solubility (in words)	SMILES	reduction of serum cholesterol levels [1]	aqueous solubility (water)
moderately soluble	CC(=O)Nc1ccc(O)cc1 [acetominophren, acetaminophen]	–	–
poorly aqueous soluble	COc1ccc2c(c1)c(CC(=O)O)c(C)n2C(=O)c1ccc(Cl)cc1 [indomethacin]	–	–
–	CC[C@H](C)C(=O)O[C@H]1C[C@@H](C)C=C2C=C[C@H](C)[C@H](CC[C@@H]3C[C@@H](O)CC(=O)O3)[C@H]21 [lovastatin]	highly effective	0.44 µg/mL (≈ 1.09 µM)
–	CCC(C)(C)C(=O)O[C@H]1C[C@@H](C)C=C2C=C[C@H](C)[C@H](CC[C@@H]3C[C@@H](O)CC(=O)O3)[C@H]21 [simvastatin]	highly effective	–
